In assay [1] the test system is LEF-1. Kind of assay: RT-PCR of LEF-1 gene expression in HHFDPCs. Format: cell-based, human. The note with it: peptide at 500 nM, 5 μM and 50 μM, 24 hours, FIG. 4. The method, then: (§1) The effect of the peptide prepared in Preparation Example 1 above on the expression levels of lymphoid enhancer-binding factor 1 (LEF-1) and c-Myc, which are downstream genes of beta-catenin, in human hair follicle dermal papilla cells (HHFDPCs) was determined by the RT-PCR method.
(§2) HHFDPCs were seeded in a 6-well cell culture plate at a density of 4×10^5 cells/well and cultured for 24 hours under mesenchymal stem cell complete media conditions. Then, the medium was replaced with serum free mesenchymal stem cell medium and cultured for additional 24 hours. The cultured cell culture was treated with the peptide prepared in Preparation Example 1 above at 500 nM, 5 μM, and 50 μM, respectively, and treated with 10 ng/mL of rhWnt-3a (recombinant human Wnt-3a protein, R&D systems (MN, USA) to serve as a positive control, and not treated with anything to serve as a negative control (con), and each was cultured at 37° C. for additional 24 hours. After washing each culture with PBS, RNA was isolated therefrom by treatment with 300 μL of eaay blue (Intron, South Korea). The isolated RNA was quantified using Nano drop, and then subjected to cDNA synthesis using a cDNA synthesis kit (Enzynomics, South Korea). […] The PCR reaction product was electrophoresed on a 1.5% agarose gel, and the bands were detected using the Bio-Rad Gel Image System.

Assay [2] has as its system Akt. Kind of assay: Western blot of phospho-AKT in HHFDPCs. The class given is cell-based, human. The note with it: peptide at 500 nM, 5 μM and 50 μM, 24 hours, FIG. 2. The method, then: (§3) The effect of the peptide prepared in Preparation Example 1 above on the activation of proliferation-related signaling molecules in human hair follicle dermal papilla cells (HHFDPCs) was confirmed by Western blot method.
(§4) HHFDPCs were seeded in a 6-well cell culture plate at a density of 4×10^5 cells/well and cultured for 24 hours under mesenchymal stem cell complete media conditions. Then, the medium was replaced with serum-free mesenchymal stem cell medium and cultured for additional 24 hours. The cultured cell culture was treated with the peptide prepared in Preparation Example 1 above at 500 nM, 5 μM, and 50 μM, respectively, 1 μM of Minoxidil (MNX) and 1 μM of VEGF were treated to serve as a positive control, and not treated with anything to serve as a negative control (con), and the cultures treated with these materials were cultured at 37° C. for additional 24 hours. After washing each culture with PBS, the cells were lysed by treatment with lysis buffer to obtain a cell lysate. Equal amounts of protein samples were prepared by BCA quantification of cell lysates. The prepared protein samples were subjected to electrophoresis using 10% SDS-PAGE. […] The resultant was washed 3 times for 15 minutes each with 0.1% PBS-T (0.1% Tween-20 in PBS), treated with ECL solution (GE Healthcare, USA), and detected with a film.
Background: A western blot detects proteins with antibodies after separation by electrophoresis.

Assay [3] concerns DKK-1. Kind of assay: Western blot of DHT-induced DKK-1 in HHFDPCs. Format: cell-based, human. The note with it: peptide at 500 nM, 5 μM and 50 μM with 100 nM DHT, 24 hours, FIG. 5. From the text:
It is known that in hair follicles, dihydrotestosterone (DHT) promotes the expression of Dickkopf-1 (DKK-1), and DKK-1 induced by DHT inhibits the proliferation of keratinocytes in hair follicles and causes their apoptosis, thereby promoting hair loss (J of Invest Dermatolo. 2008, February, 128(2), pp. 262-269.). The effect of the peptide prepared in Preparation Example 1 above on the expression level of the hair loss-inducing protein DKK-1 in human hair follicle dermal papilla cells (HHFDPCs) was confirmed by Western blot method.
HHFDPCs were seeded in a 6-well cell culture plate at a density of 4×10^5 cells/well and cultured for 24 hours under mesenchymal stem cell complete media conditions. Then, the medium was replaced with serum-free mesenchymal stem cell medium and cultured for additional 24 hours. The cultured cell culture was treated with 500 nM, 5 μM, and 50 μM of the peptide prepared in Preparation Example 1 above, respectively. treated with 5 μM of finasteride to serve as a positive control, and not treated with anything to serve as a negative control group (con). […] Equal amounts of protein samples were prepared by BCA quantification of cell lysates. […] The resultant was washed 3 times for 15 minutes each with 0.1% PBS-T (0.1% Tween-20 in PBS), treated with ECL solution (GE Healthcare, USA), and detected with a film.

The test system of assay [4] is Ha3-II. As to the kind of experiment: RT-PCR of Ha3-II gene expression in HHORSCs. The class given is cell-based, human. The note with it: peptide at 500 nM, 5 μM and 50 μM, 24 hours, FIG. 6. The method, then: (§5) The effect of the peptide prepared in Preparation Example 1 above on the activation of human hair outer root sheath cells (HHORSCs) was confirmed by measuring the expression of cytokeratin proteins.
(§6) HHORSCs were seeded in a 96-well cell culture plate at a density of 4×10^3 cells/well and cultured for 24 hours under mesenchymal stem cell complete media conditions. Then, the medium was replaced with serum free mesenchymal stem cell medium and cultured for additional 24 hours. The cultured cell culture was treated with 500 nM, 5 μM, and 50 μM of the peptide prepared in Preparation Example 1 above, respectively, and treated with 100 nM of epidermal growth factor (EGF) as a positive control, and negative when not treated with anything to serve as a negative control (con), and these cultures were cultured at 37° C. for 24 hours. After washing each culture with PBS, RNA was isolated by treatment with 300 μL of eaay blue (Intron, South Korea). The isolated RNA was quantified using Nano drop, and then subjected to cDNA synthesis using a cDNA synthesis kit (Enzynomics, South Korea). Then, a PCR reaction was performed using the primers shown in Table 3 below and a PCR premix (Enzynomics, South Korea). The PCR reaction product was electrophoresed on a 1.5% agarose gel, and the bands were detected using the Bio-Rad Gel Image System.

The subject of assay [5] is c-Myc. As to the kind of experiment: RT-PCR of c-Myc gene expression in HHFDPCs. Format: cell-based, human. The note with it: peptide at 500 nM, 5 μM and 50 μM, 24 hours, FIG. 4. The method, then: as §1, §2
For assay [6], the system named is Keratin 5. Kind of assay: RT-PCR of Keratin 5 gene expression in HHORSCs. The note with it: peptide at 500 nM, 5 μM and 50 μM, 24 hours, FIG. 6. Format: cell-based, human. The method, then:
as §5, §6

Assay [7] has as its system beta-catenin. As to the kind of experiment: Western blot of nuclear beta-catenin in HHFDPCs. Format: cell-based, human. The note with it: peptide at 500 nM, 5 μM and 50 μM, 24 hours, nuclear protein Western blot, FIG. 3. The method, then: The effect of the peptide prepared in Preparation Example 1 above on the activation of beta-catenin in human hair follicle dermal papilla cells (HHFDPCs) was confirmed by Western blot method.
HHFDPCs were seeded in a 6-well cell culture plate at a density of 4×10^5 cells/well and cultured for 24 hours under mesenchymal stem cell complete media conditions. Then, the medium was replaced with serum-free mesenchymal stem cell medium and cultured for additional 24 hours. The cultured cell culture was treated with the peptide prepared in Preparation Example 1 above at 500 nM, 5 μM, and 50 μM, respectively, and treated with 10 ng/mL of rhWnt-3a (recombinant human Wnt-3a protein, R&D systems (MN, USA) to serve as a positive control, and not treated with anything to serve as a negative control (con). The cultures treated with these materials were incubated at 37° C. for additional 24 hours. After washing each culture with PBS, nuclear proteins were isolated using a nuclear protein extraction kit (Thermo scientific, USA), and an equal amount of protein sample was prepared by BCA quantification. The prepared protein samples were subjected to electrophoresis using 10% SDS-PAGE. […] The resultant was washed 3 times for 15 minutes each with 0.1% PBS-T (0.1% Tween-20 in PBS), treated with ECL solution (GE Healthcare, USA), and detected with a film.

Assay [8] has as its system Keratin 19. Kind of assay: RT-PCR of Keratin 19 gene expression in HHORSCs. The class given is cell-based, human. The note with it: peptide at 500 nM, 5 μM and 50 μM, 24 hours, FIG. 6. The procedure:
as §5, §6

Assay [9] concerns Keratin 14. Kind of assay: RT-PCR of Keratin 14 gene expression in HHORSCs. Format: cell-based, human. The note with it: peptide at 500 nM, 5 μM and 50 μM, 24 hours, FIG. 6. The method, then:
as §5, §6

Assay [10] deals with human hair follicle dermal papilla cells (HHFDPCs). As to the kind of experiment: Proliferation of human hair follicle dermal papilla cells (MTT). Format: cell-based. The note with it: peptide at 500 nM, 5 μM and 50 μM, 72 hours, absorbance 540 nm, FIG. 1. The method, then: The effect of the peptide prepared in Preparation Example 1 above on the proliferation of human hair follicle dermal papilla cells (HHFDPCs) was tested.
HHFDPCs were seeded in a 96-well cell culture plate at a density of 4×10^3 cells/well and cultured for 24 hours under mesenchymal stem cell complete media conditions. Then, the medium was replaced with serum-free mesenchymal stem cell medium and cultured for additional 24 hours. The cultured cell culture was treated with the peptide prepared in Preparation Example 1 above at 500 nM, 5 μM, and 50 μM, respectively, treated with 1 μM VEGF to serve as a positive control, and not treated with anything to serve as a negative control (con), and these cultures were cultured at 37° C. for additional 72 hours. Thereafter, 10 μL of MTT solution (5 mg/mL) was added thereto, and the mixture was incubated in a CO2 incubator at 37° C. for 4 hours, the medium was removed, and 100 μL of DMSO was added thereto and shaken for 10 minutes. Finally, the absorbance was measured at a wavelength of 540 nm using a spectrophotometer (Molecular Devices (SpectraMax iD3, CA, USA)).

Assay [11] concerns extracellular-regulated kinase (ERK). As to the kind of experiment: Western blot of phospho-ERK in HHFDPCs. Format: cell-based, human. The note with it: peptide at 500 nM, 5 μM and 50 μM, 24 hours, FIG. 2. The method, then:
as §3, §4

For “LKRYKHLV (Leu-Lys-Arg-Tyr-Lys-His-Leu-Val) [peptide of Preparation Example 1]”, the “gene expression of LEF-1” value in [1] was “increased”. For the same sequence, in assay [2], the “phosphorylation of Akt” value is recorded as “increased”. The “expression of DKK-1 induced by DHT treatment” value in assay [3] is on record as “reduced in a concentration-dependent manner”. In assay [4], the “gene expression of Ha3-II” value was “increasing”. Moreover, the “gene expression of c-Myc” value in assay [5] was “increased”. For the same sequence, in assay [6], the “gene expression of Keratin 5” value is given as “increasing”. The “beta-catenin activation and movement to the nucleus” value in [7] is reported as “increased”. The “gene expression of Keratin 19” value in assay [8] is given as “increasing”. The “gene expression of Keratin 14” value in assay [9] is given as “increasing”. Besides, the “proliferation of HHFDPC compared to the negative control (con)” value in assay [10] is on record as “promoted”. Further, the “phosphorylation of extracellular-regulated kinase (ERK)” value in assay [11] is recorded as “increased”.

The values above are taken from patent US20260139004A1, “PEPTIDE HAVING ACTIVITIES OF PROMOTING HAIR GROWTH AND INHIBITING HAIR LOSS, AND USES THEREOF” (CAREGEN CO., LTD., priority 2022, published 2026).
